According to ChEMBL document CHEMBL1126911, “Synthesis and binding properties of 2-amino-5-phosphono-3-pentenoic acid photoaffinity ligands as probes for the glutamate recognition site of the NMDA receptor” (J Med Chem, 1993):

What was measured:
[1] = target: Glutamate NMDA receptor; assay: Tested for in vitro binding affinity against NMDA receptor by using [3H]-CGP- 39653 as radioligand in rat forebrain membranes.; format: cell membranes
[2] = target: Glutamate NMDA receptor; assay: Tested for in vitro binding affinity against NMDA receptor by using [3H]-CGP- 39653 as radioligand in rat forebrain membranes; format: cell membranes, Membrane

`[N-]=[N+]=Nc1ccc(C(=O)NCCCCCC/C(=C\C(N)C(=O)O)CP(=O)(O)O)c(O)c1` (stereo not given) gave an IC50 [1] of 0.036 µM.

`NC(/C=C(\CCCCCCNC(=O)c1ccccc1)CP(=O)(O)O)C(=O)O` (stereo not given) showed an IC50 [2] of 0.106 µM.

`[N-]=[N+]=Nc1ccc(C(=O)NCCCCCC/C(=C\C(N)C(=O)O)CP(=O)(O)O)cc1` (stereo not given) gave an IC50 [1] of 0.038 µM.

Compound `[N-]=[N+]=Nc1ccc(C(=O)NCCCCCC/C(=C\C(N)C(=O)O)CP(=O)(O)O)c(O)c1I` (stereo not given) has an IC50 [1] of 0.034 µM.

In the case of `NCCCCCC/C(=C\C(N)C(=O)O)CP(=O)(O)O` (stereo not given), the IC50 [1] is reported as 0.042 µM.
